Assay results as given in patent publication US9926297B2, “Bicyclic AZA compounds as muscarinic M1 receptor and/or M4 receptor agonists” (Heptares Therapeutics Limited, priority 2014, dated 2018).

Experiments:
[1] = biological target: human muscarinic M3 receptor (Homo sapiens, UniProt P20309); experiment: Alphascreen Surefire phospho-ERK1/2 functional assay, M3; conditions: for Emax: CHO, read-out: % Emax cf. ACh, M3, CHO cells stably expressing human M3, relative to ACh; for EC50: pEC50 M3, CHO cells stably expressing human M3, phospho-ERK1/2, * = variable results
Chain of human muscarinic M3 receptor (P20309 whole entry): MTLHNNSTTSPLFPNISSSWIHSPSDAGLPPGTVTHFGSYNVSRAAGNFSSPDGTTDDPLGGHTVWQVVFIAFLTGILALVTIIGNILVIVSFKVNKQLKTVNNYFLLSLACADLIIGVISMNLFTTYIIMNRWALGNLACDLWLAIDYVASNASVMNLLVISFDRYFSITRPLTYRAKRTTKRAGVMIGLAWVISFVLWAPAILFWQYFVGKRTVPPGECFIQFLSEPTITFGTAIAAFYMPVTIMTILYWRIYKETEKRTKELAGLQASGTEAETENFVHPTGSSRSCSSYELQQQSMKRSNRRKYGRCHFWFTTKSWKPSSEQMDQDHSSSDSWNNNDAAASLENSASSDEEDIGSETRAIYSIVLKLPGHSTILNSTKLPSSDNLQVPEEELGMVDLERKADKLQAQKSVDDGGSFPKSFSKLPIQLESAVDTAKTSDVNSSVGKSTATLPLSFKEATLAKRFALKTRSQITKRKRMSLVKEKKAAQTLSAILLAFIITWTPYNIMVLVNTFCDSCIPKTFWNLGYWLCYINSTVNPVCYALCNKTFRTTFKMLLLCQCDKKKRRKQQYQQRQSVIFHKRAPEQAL

[2] = biological target: T1, human muscarinic M2 receptor (Homo sapiens, UniProt P08172); experiment: Alphascreen Surefire phospho-ERK1/2 functional assay, M2; conditions: for Emax: CHO, read-out: % Emax cf. ACh, M2, CHO cells stably expressing human M2, relative to ACh
T1 sequence (P08172 1-466): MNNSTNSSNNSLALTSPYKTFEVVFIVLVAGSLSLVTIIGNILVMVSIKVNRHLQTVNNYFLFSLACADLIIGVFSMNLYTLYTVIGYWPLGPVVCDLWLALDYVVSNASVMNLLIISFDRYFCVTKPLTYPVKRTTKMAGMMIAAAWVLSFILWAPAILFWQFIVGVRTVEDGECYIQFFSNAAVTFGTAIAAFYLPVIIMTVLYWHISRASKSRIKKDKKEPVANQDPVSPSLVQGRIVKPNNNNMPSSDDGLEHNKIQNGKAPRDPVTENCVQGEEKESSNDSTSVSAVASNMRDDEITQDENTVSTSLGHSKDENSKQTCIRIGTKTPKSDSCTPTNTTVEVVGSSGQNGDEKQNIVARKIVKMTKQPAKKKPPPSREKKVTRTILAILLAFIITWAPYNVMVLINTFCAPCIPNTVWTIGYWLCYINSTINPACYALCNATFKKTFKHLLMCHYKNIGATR

[3] = biological target: T2, human muscarinic M4 receptor (Homo sapiens, UniProt P08173); experiment: Alphascreen Surefire phospho-ERK1/2 functional assay, M4; assay type: cell-based; conditions: for EC50: CHO cells stably expressing human M4, phospho-ERK1/2, * = variable results, read-out: pEC50 M4 (converted); for Emax: CHO, read-out: % Emax cf. ACh, M4, CHO cells stably expressing human M4, relative to ACh
T2 construct: expressed in transfected cells
T2 sequence (P08173 1-479): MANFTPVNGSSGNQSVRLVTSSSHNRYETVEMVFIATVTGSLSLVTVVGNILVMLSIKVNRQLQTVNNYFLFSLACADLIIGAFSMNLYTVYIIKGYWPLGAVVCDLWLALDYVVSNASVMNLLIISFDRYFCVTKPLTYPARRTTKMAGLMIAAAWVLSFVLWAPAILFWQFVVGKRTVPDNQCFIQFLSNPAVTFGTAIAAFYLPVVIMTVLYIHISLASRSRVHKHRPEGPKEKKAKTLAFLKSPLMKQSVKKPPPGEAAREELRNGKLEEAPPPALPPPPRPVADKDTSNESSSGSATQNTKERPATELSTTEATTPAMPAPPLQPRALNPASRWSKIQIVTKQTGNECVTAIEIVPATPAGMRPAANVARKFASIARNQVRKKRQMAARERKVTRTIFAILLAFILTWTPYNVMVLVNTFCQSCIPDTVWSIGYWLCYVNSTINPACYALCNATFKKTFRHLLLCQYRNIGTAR

[4] = biological target: T3, human muscarinic M1 receptor (Homo sapiens, UniProt P11229); experiment: Alphascreen Surefire phospho-ERK1/2 functional assay, M1; assay type: cell-based; conditions: for EC50: CHO cells stably expressing human M1, phospho-ERK1/2, * = variable results, read-out: pEC50 M1 (converted); for Emax: CHO, read-out: % Emax cf. ACh, M1, CHO cells stably expressing human M1, relative to ACh
T3 sequence (P11229 1-460): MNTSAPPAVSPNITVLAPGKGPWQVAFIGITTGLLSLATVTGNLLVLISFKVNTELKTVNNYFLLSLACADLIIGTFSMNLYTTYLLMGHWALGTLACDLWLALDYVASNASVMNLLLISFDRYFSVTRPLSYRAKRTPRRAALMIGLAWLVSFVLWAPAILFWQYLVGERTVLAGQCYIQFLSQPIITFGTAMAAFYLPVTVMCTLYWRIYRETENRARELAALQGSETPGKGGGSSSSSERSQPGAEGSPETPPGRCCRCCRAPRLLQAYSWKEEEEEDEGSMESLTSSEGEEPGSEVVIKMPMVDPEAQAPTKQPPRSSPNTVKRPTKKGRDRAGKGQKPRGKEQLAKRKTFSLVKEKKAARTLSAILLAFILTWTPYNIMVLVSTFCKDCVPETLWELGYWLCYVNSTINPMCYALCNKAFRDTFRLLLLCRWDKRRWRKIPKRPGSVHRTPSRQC

| Emax [1] [%] | EC50 [1] [nM] | EC50 [2] [nM] | Emax [2] [%] | EC50 [3] [nM] | Emax [3] [%] | EC50 [4] [nM] | Emax [4] [%] | SMILES |
| --- | --- | --- | --- | --- | --- | --- | --- | --- |
| 0 | > 20000 | > 20000 | 7 | 6.31 | 115 | 31.6 | 97 | CCOC(=O)N1CCC2(CC(N3CCC(c4ccc[nH]c4=O)CC3)C2)C1 (single isomer, unassigned) [3-2 Isomer 1, ethyl 2-[4-(2-oxo-1,2-dihydropyridin-3-yl)piperidin-1-yl]-6-azaspiro[3.4]octane-6-carboxylate] |
| 0 | > 20000 | > 20000 | 2 | 25.1 | 54 | > 20000 | 19 | CCOC(=O)N1CCC2(CC(N3CCC(c4ccnc(N)n4)CC3)C2)C1 (single isomer, unassigned) [3-8 Isomer 2, ethyl 2-[4-(2-aminopyrimidin-4-yl)piperidin-1-yl]-6-azaspiro[3.4]octane-6-carboxylate] |
| 4 | > 20000 | > 20000 | 0 | 39.8 | 58 | > 20000 | 74 | CCOC(=O)N1CCC2(CC(N3CCC(c4cnc(OC)cc4C)CC3)C2)C1 (single isomer, unassigned) [3-6 Isomer 2, ethyl 2-[4-(6-methoxy-4-methylpyridin-3-yl)piperidin-1-yl]-6-azaspiro[3.4]octane-6-carboxylate] |
| 2 | > 20000 | > 20000 | 1 | 5.01 | 115 | 158 | 110 | CCOC(=O)N1CCC2(CC(N3CCC([C@@H]4CCCN4C(=O)NC4CC(F)(F)C4)CC3)C2)C1 (single isomer, unassigned) [2-38 Isomer 2] |
| 4 | > 20000 | > 20000 | 1 | 15.8 | 92 | 398 | 108 | CCOC(=O)N1CCC2(CC(N3CCC([C@@H]4CCCN4C(=O)NC4(C)CCC4)CC3)C2)C1 (single isomer, unassigned) [2-35 Isomer 2] |
| 0 | > 20000 | > 20000 | 14 | 63.1 | 90 | 631 | 53 | CCOC(=O)N1CCC2(CC(N3CCC(c4nc(Cl)c(Cl)n4C)CC3)C2)C1 (single isomer, unassigned) [1-17 Isomer 2, ethyl 2-[4-(4,5-dichloro-1-methyl-1H-imidazol-2-yl)piperidin-1-yl]-6-azaspiro[3.4]octane-6-carboxylate] |
| 21 | 6310 | > 20000 | 10 | 7.94 | 126 | 79.4 | 109 | CCOC(=O)N1CCC2(CC(N3CCC([C@@H]4CCCN4C(=O)CC(F)(F)F)CC3)C2)C1 (single isomer, unassigned) [2-53 Isomer 2] |
| 3 | > 20000 | > 20000 | 4 | 20 | 100 | 200 | 26 | CCOC(=O)N1CCC2(CC(N3CCC(N4CCC[C@@H]4C(F)F)CC3)C2)C1 (single isomer, unassigned) [2-103 Isomer 2] |
| 5 | > 20000 | > 20000 | 4 | 50.1 | 47 | 3160 | 19 | CCOC(=O)N1CCC2(CC(N3CCC([C@@H]4CCCN4C(=O)OC4CCC4)CC3)C2)C1 (single isomer, unassigned) [2-43 Isomer 2] |
| 13 | > 20000 | > 20000 | 7 | 63.1 | 113 | 251 | 82 | CCOC(=O)N1CCC2(CC(N3CCC(N4CCCC[C@@H]4C(=O)OC)CC3)C2)C1 (single isomer, unassigned) [4-15 Isomer 2] |
